Data set [1] relates to PH domains of Akt, PDK1, and IRS1. The note with it: cited from earlier work.
For data set [2] the following is noted: cited from earlier work.
For data set [3], the system named is PI3K-PDK1-Akt pathway. In words: PI3K-PDK1-Akt pathway phosphorylation events in U87MG cells. It is filed as cell-based, human. How it is done: The effect of PIT-1 on PIP3-mediated signaling was examined in U87MG glioblastoma cells, which show elevated basal levels of PIP3 due to the loss of PTEN. Pore N et al. (2003) Cancer Res 63:236-41.
Data set [4] concerns U87MG cells. Briefly: U87MG cell viability, ATP assay. It counts as cell-based, human. The procedure: U87MG cells were incubated with PITs (12.5-100 μM) for 48 hr. Cell viability was determined using ATP assay.
Based on the critical role of PIP3-dependent Akt signaling in the regulation of cell survival, the effect of PIT-1 on the cancer cell viability was tested. Cancer cells were seeded into 96-well plates (white plates for ATP assay; black plates for fluorescent assay; clear plates for MTS assay) at the density of 5-10×10^3 cells per well in 100 μl of the appropriate media. Compounds were added at a series of concentrations and incubated for different times. For the ATP assay, a luminescence-based commercial kit (CellTiter-Glo, Promega, Madison, Wis.) was used. Thirty microliters of cell lysis/ATP detection reagent was added to each well, mixed for 10 min at room temperature, and the luminescence was measured using a Wallac Victor 3 plate reader (Perkin-Elmer, Wellesley, Mass.). For the MTS assay, a CellTiter 96 AQueous Non-Radioactive Cell Proliferation Assay Kit (Promega, Madison, Wis., USA) was used. Twenty microliters of the combined MTS/PMS solution was added into each well, incubated for 4 hr at 37° C., and the absorbance at 490 nm was measured using a Wallac Victor 3 plate reader. For the Sytox cell death assay, measuring loss of plasma membrane integrity, cells were incubated with 1 μM Sytox Green reagent (Molecular Probes, Eugene, Oreg.) for 30 min at 37° C. and the fluorescence intensity was measured using Wallac Victor 3 plate reader with excitation at 485 nm and emission at 545 nm. Next, 5 μl of 20% (v/v) Triton X-100 solution was added to each well and incubated for 1 hr at 37° C., and the signal was measured again. The ratio of values (percentage of dead cells in each well) before and after Triton X-100 treatment was calculated and normalized to the relevant controls not subjected to the cytotoxic stimuli. IC50 values were determined using Origin6 software (MicroCal, LLC, Northampton, Mass.).

Data set [5] deals with human cancer cells. In words: transwell (Boyden chamber) migration of cancer cells. It is filed as cell-based. The procedure: Two models of cell migration were used, a transwell migration model and a wound closure model. Migration of cancer and endothelial cells was evaluated using 24-transwell Boyden chamber (Costar, Bedford, Mass.) with a polystyrene membrane (6.5 mm diameter, 10 μm thickness, and 8 μm pore size). Cells were suspended in serum-free media and seeded in the upper compartment of each well (2×10^4 cells/well) in the presence or absence of different compounds at the indicated concentrations. The lower compartment contained 600 μl of serum-free culture media supplemented with growth factors. After an 8-hr incubation at 37° C., cells were fixed and stained with 0.1% crystal violet. Non-migrating cells on the upper surface of the filter were removed, and the stained cells that migrated to the lower side were photographed using a phase-contrast microscope (Nikon, Japan) in five random fields. The cells were lysed with 10% acetic acid, and colorimetric determination was made at 595 nm using Wallac Victor 3 plate reader.

Data set [6] is described as follows: solubility / precipitation. It is filed as physicochemical. The note with it: 300 μM, unencapsulated, cell media. The source says: This method has been reported to be efficient for in vivo targeting of cancer cells by other poorly soluble anti-cancer drugs, such as m-porphyrin, tamoxifen, and taxol. Gao Z et al. (2003) J Drug Target 11:87-92; Torchilin V P et al. (2003) Proc Natl Acad Sci USA 100:6039-44.
The size of the DM-PIT-1-loaded micelles was about 15 nm with a narrow size distribution.

The subject of data set [7] is 4T1 breast cancer. Briefly: syngeneic 4T1 breast tumor growth in BALB/c mice. It counts as in vivo, mouse. How it is done: After inoculation of tumor cells, DM-PIT-1 or DM-PIT-1-M were administered i.v. daily at doses of 0.4 mg/kg and 1 mg/kg, respectively, for 8 days. Tumor volumes as measured every two days are shown.
The effect of intravenous (i.v.) administration of both unencapsulated DM-PIT-1 in PBS and DM-PIT-1-M on the syngeneic 4T1 breast cancer growth in BALB/c mice was examined. 4T1 metastatic breast cancer cells were first cultured in vitro in DMEM medium containing 10% FBS and antibiotics. After re-suspension in PBS, the 4T1 cancer cells (8×10^4) were injected s.c. into axillary regions of BALB/c mice. The treatment with PIT-1 began on day 11 after inoculation of tumor cells, i.e., when tumors were palpable, but before tumors are precisely measurable (˜50 mm^3). Working solutions of all PIT-1-formulations were made in sterile 0.9% NaCl before injection into mice. Free DM-PIT-1 and micellar DM-PIT-1 were administered i.v. daily at doses of 0.4 and 1 mg/kg, respectively, for 8 days. If the tumor size reached approx. 1000 mm^3, the mice were euthanized using carbon dioxide (CO2) prior to cervical dislocation. Seven mice per group were used. The tumor volume (V) was measured every two days by microcaliper for 8 days. Tumor volume was calculated according to the formula ([…])/2, where α is the longest and b is the shortest diameter of tumor, respectively.

Data set [8] concerns CD31. Briefly: tumor angiogenesis in vivo, microvasculature marker CD31. The note with it: mouse. How it is done:
Tumor tissues were fixed in phosphate-buffered formalin, embedded in paraffin, cut in 4 μM thickness, and applied to slides. The slides were deparaffinized in xylenes using three changes for 5 min each, and hydrated gradually through graded alcohols: 100% ethanol twice for 10 min each, 95% ethanol twice for 10 min each, and then deionized water for 1 min with stirring. For antigen unmasking, slides were placed in a container, covered with 10 mM sodium citrate buffer, pH 6.0, and heated in a convection steamer for 1 hr. The slides were washed in deionized water three times for 2 min each, blocked with 5% normal goat blocking serum for 30 min, incubated with goat anti-CD31 primary antibody for 1 hr, and incubated with an Alexa Fluor 488-conjugated secondary antibody for 30 min. The slides were analyzed and photographed using a fluorescent microscope. TUNEL staining was performed using FragEL kit according to manufacturer's instructions (Calbiochem).
In view of the significant inhibitory effect of PIT-1 on angiogenesis observed in vitro, the extent of angiogenesis in DM-PIT-1-treated tumors was examined in vivo using microvasculature marker CD31. […] Suppression of angiogenesis also likely contributed to the suppression of tumor growth by DM-PIT-1 treatment in vivo, considering a relatively low dose of the compound used in the experiments.

Data set [9] has as its system SV40-transformed mouse adult lung fibroblasts. In words: loss of viability, Akt1-expressing vs Akt1-3 triple knockout lung fibroblasts. It counts as cell-based. The note with it: P<0.01. The source says: Shaughnessy J D (2008) Nature 454:172-3; Weinstein I G (2002) Science 297:63-4. Therefore, the possibility that PIT-1 may cause preferential cell death in the cells containing elevated PIP3 levels was examined. […] Li D M et al. (1998) Proc Natl Acad Sci USA 95:15406-11. […] This observation is consistent with the notion that PTEN-deficient cancer cells become overly dependent on PIP3 signaling and, therefore, are hypersensitive to disruption of this pathway compared to wild-type PTEN-expressing cells. Neshat M S et al. (2001) Proc Natl Acad Sci USA 98:10314-9.

Data set [10] concerns cells. Briefly: cell death with inhibitors of mitochondrial respiration and ATP synthase. It counts as cell-based. The source says:
Elstrom R L et al. (2004) Cancer Res 64:3892-9.

Data set [11] deals with U87MG cells. Briefly: sensitization of U87MG cells to killing by TRAIL, ATP assay. It counts as cell-based, human. How it is done: FIG. 10 is a bar graph depicting that PITs, as well as Akt inhibitor VIII, sensitize U87MG cells to killing by TRAIL. U87MG cells were incubated with 50 μM PIT-1, PIT-2, PIT-1i-1 or 10 μM Akt inhibitor VIII in the presence or absence of 10 ng/ml TRAIL for 48 hr, followed by cell viability analysis using ATP assay.
Based on the critical role of PIP3-dependent Akt signaling in the regulation of cell survival, the effect of PIT-1 on the cancer cell viability was tested. Cancer cells were seeded into 96-well plates (white plates for ATP assay; black plates for fluorescent assay; clear plates for MTS assay) at the density of 5-10×10^3 cells per well in 100 μl of the appropriate media. […] For the ATP assay, a luminescence-based commercial kit (CellTiter-Glo, Promega, Madison, Wis.) was used. Thirty microliters of cell lysis/ATP detection reagent was added to each well, mixed for 10 min at room temperature, and the luminescence was measured using a Wallac Victor 3 plate reader (Perkin-Elmer, Wellesley, Mass.). […] Twenty microliters of the combined MTS/PMS solution was added into each well, incubated for 4 hr at 37° C., and the absorbance at 490 nm was measured using a Wallac Victor 3 plate reader. […] Next, 5 μl of 20% (v/v) Triton X-100 solution was added to each well and incubated for 1 hr at 37° C., and the signal was measured again. […]

This is an account of results in patent publication US20120136033A1, “Small Molecule Antagonists of Phosphatidylinositol-3,4,5-Triphosphate (PIP3) and Uses Thereof” (President and Fellows of Harvard College, priority 2009, published 2012).

With `CC1=NN(C(=O)c2ccc(Cl)cc2)C(=O)C1N=Nc1ccc(S(=O)(=O)Nc2ncccn2)cc1` (centres unmarked) [NSC 348900, 4-[1-(4-chlorobenzoyl)-3-methyl-5-oxo-4,5-dihydro-1H-pyrazol-4-ylazo]-N-pyrimidine-2-yl-benzenesulfonamide], in data set [1], the “interaction with PH domains of Akt, PDK1, and IRS1” value is recorded as “capable of interacting”. The “in vivo anti-tumor activity” value in data set [2] is recorded as “lacked in vivo anti-tumor activity”.
Consider `Cc1cc(C)cc(C(=O)NC(=S)Nc2cc([N+](=O)[O-])ccc2O)c1` [DM-PIT-1], for which, in [3], the “activity compared to PIT-1 in inhibition of PI3K-PDK1-Akt signaling” value is “increased activity”. Also, the “activity compared to PIT-1 in inducing cell death in U87MG cells” value in data set [4] is “increased activity”. The “activity compared to PIT-1 in inhibition of cell migration” value in data set [5] was “increased activity”. In addition, the “precipitation in cell media at 300 μM” value in data set [6] was “significant precipitation”. The “tumor growth in vivo compared to control” value in [7] (8-day administration, P<0.01) is “significantly attenuated tumor growth”. For the same molecule, the “reduction of tumor volume as compared to control” value in data set [7] (day 8, i.v. daily, free 0.4 mg/kg, micellar 1 mg/kg) came out at 58.1%. The same molecule registered a tumor volume in data set [7] (day 8, i.v. daily, free 0.4 mg/kg, micellar 1 mg/kg, control 902.5±153) of 380±52.3 mm^3. Moreover, in data set [8], the “CD31 loci in treated tumors (angiogenesis in vivo)” value was “attenuation of a number of CD31 loci”.
For the molecule `O=c1[nH]c2ccccc2n1C1CCN(Cc2ccc(-c3nc4cc5[nH]cnc5cc4nc3-c3ccccc3)cc2)CC1` [Akt kinase inhibitor VIII, reference compound], the “loss of viability in Akt1-expressing fibroblasts compared to Akt1-3 triple knockout cells” value in [9] is given as “comparable”. Besides, the “synergy with oligomycin, antimycin A and rotenone in inducing cell death” value in data set [10] is “synergized”. Further, in data set [5] (transwell / wound healing models), the “inhibition of cancer cell migration” value is reported as “lack thereof”.

B1: TRAIL: Tumor necrosis factor (TNF)-related apoptosis-inducing ligand, 281 amino acid-long member of the TNF family of cytokines (protein, UniProt P50591 1-281, looked up)
chain: MAMMEVQGGPSLGQTCVLIVIFTVLLQSLCVAVTYVYFTNELKQMQDKYSKSGIACFLKEDDSYWDPNDEESMNSPCWQVKWQLRQLVRKMILRTSEETISTVQEKQQNISPLVRERGPQRVAAHITGTRGRSNTLSSPNSKNEKALGRKINSWESSRSGHSFLSNLHLRNGELVIHEKGFYYIYSQTYFRFQEEIKENTKNDKQMVQYIYKYTSYPDPILLMKSARNSCWSKDAEYGLYSIYQGGIFELKENDRIFVSVTNEHLIDMDHEASFFGAFLVG
modifications: full-length
notes: Tumor necrosis factor (TNF)-related apoptosis-inducing ligand, 281 amino acid-long member of the TNF family of cytokines
In the case of B1, the “sensitivity of U87MG cells to TRAIL alone” value in data set [11] is given as “entirely resistant”.
